As a reminder, the GI50 is the concentration giving 50% growth inhibition. The term TGI denotes the concentration giving total growth inhibition. A higher TGI goes with lower sensitivity of the cells.

Several values for one entry are separate records, joined by “and”; a condition that tells them apart may be missing. Equal entries are not always repeated.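 96-well plates; 48 h exposure; 5 concentrations. Endpoints by linear interpolation between flanking doses. Not reached: highest tested concentration assigned. The concentration for 50% growth inhibition is given as GI50. TGI is the concentration that stops growth completely.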

Some test systems named below: SF-295 CNS; NCI-H460 lung; HS 578T breast; SF-268 CNS; OVCAR-3 ovarian; KM12 colon; OVCAR-8 ovarian; PC-3 prostate; CAKI-1 renal; M14 melanoma.
Assay in all cases: DTP human tumour cell line panel, 48 h

Regarding `COc1cc(Cl)cc(-c2nn(-c3cccc(NC(=O)c4ccc(N5CCOCC5)c(C(F)(F)F)c4)c3)cc2-c2ccncc2)c1`, the GI50 is 2.21 µM with SF-295 CNS; 4.8 µM in the test on NCI-H460 lung; 6.48 µM with HS 578T breast; above 100 µM in the test on SF-268 CNS; 53.1 µM in the test with OVCAR-3 ovarian; 5.38 µM in the test with KM12 colon. Further, the GI50 with OVCAR-8 ovarian is 6.33 µM; in the test with PC-3 prostate, 3.3 µM; with CAKI-1 renal it was 4.4 µM; in the test on M14 melanoma it was 7.93 µM. Also, the TGI was 14.8 µM with SF-295 CNS; above 100 µM with NCI-H460 lung; above 100 µM with HS 578T breast; above 100 µM in the test on SF-268 CNS; above 100 µM in the test on OVCAR-3 ovarian; above 100 µM in the test on KM12 colon. In addition, the TGI with OVCAR-8 ovarian, with PC-3 prostate, in the test on CAKI-1 renal and with M14 melanoma was above 100 µM in each case.
Turning to `CC(C)(/C=C(\C#N)C(=O)N1CCC[C@@H](n2nc(-c3ccc(Oc4ccccc4)cc3F)c3c(N)ncnc32)C1)N1CCN(C2COC2)CC1`, the GI50 is 6.39 µM with SF-295 CNS; 6.3 µM in the test on NCI-H460 lung; 4.67 µM in the test on HS 578T breast; 5.37 µM in the test on SF-268 CNS; 10.5 µM with OVCAR-3 ovarian; 3.34 µM with KM12 colon. Also, the GI50 in the test with OVCAR-8 ovarian was 10.8 µM; in the test on PC-3 prostate, 10.6 µM; with CAKI-1 renal, 6.39 µM; in the test on M14 melanoma, 4.82 µM. Moreover, the TGI in the test on SF-295 CNS was 19.6 µM; in the test on NCI-H460 lung it was 20.8 µM; in the test with HS 578T breast it was 23.8 µM; with SF-268 CNS, 21.8 µM; in the test on OVCAR-3 ovarian it was 23.2 µM; in the test with KM12 colon it was 14 µM. The concentration for total growth inhibition (TGI) in the test with OVCAR-8 ovarian is 34.3 µM; with PC-3 prostate, 27.6 µM; in the test with CAKI-1 renal, 18.8 µM; with M14 melanoma it was 18.8 µM.
For the molecule `CC(=O)Nc1ccc(-c2csc(Nc3cccc(-c4csc(C)n4)c3)n2)cc1`, the GI50 in the test on SF-295 CNS is 0.907 µM; in the test with NCI-H460 lung, 1 µM; in the test on HS 578T breast, 3.83 µM; in the test on SF-268 CNS it was 4.38 µM; with OVCAR-3 ovarian, 0.238 µM; with KM12 colon, 0.404 µM. Also, the GI50 in the test with OVCAR-8 ovarian is 2.44 µM; in the test on PC-3 prostate it was 1.67 µM; with CAKI-1 renal, 1.61 µM; with M14 melanoma, 0.743 µM. Also, the TGI is above 13.2 µM in the test with SF-295 CNS; above 50 µM with NCI-H460 lung; above 30.4 µM with HS 578T breast; above 27.1 µM with SF-268 CNS; 6.07 µM in the test on KM12 colon; 20.8 µM in the test with OVCAR-8 ovarian. The TGI in the test with PC-3 prostate is above 19.9 µM; in the test with CAKI-1 renal, 8.75 µM; in the test with M14 melanoma, 8.81 µM.
On to `Cc1c(N(C)C)ccc2c(=O)c3cccc(CC(=O)O)c3oc12`, for which the TGI in the test with SF-295 CNS, in the test with NCI-H460 lung, with HS 578T breast, in the test on SF-268 CNS, in the test with OVCAR-3 ovarian and in the test with KM12 colon was above 100 µM in each case. Also, the TGI in the test on OVCAR-8 ovarian, in the test on PC-3 prostate, in the test with CAKI-1 renal and in the test on M14 melanoma was above 100 µM throughout.
With `CN(C)CC[C@H](CSc1ccccc1)Nc1ccc(S(=O)(=O)NC(=O)c2ccc(N3CCN(Cc4ccccc4-c4ccc(Cl)cc4)CC3)cc2)cc1[N+](=O)[O-]`, the GI50 in the test with SF-295 CNS was 3.6 µM; in the test on NCI-H460 lung, 3.52 µM; in the test with HS 578T breast, 6.87 µM; in the test with SF-268 CNS, 5.84 µM; in the test with OVCAR-3 ovarian, 3.92 µM; in the test on KM12 colon it was 3.6 µM. For the same molecule, the GI50 with OVCAR-8 ovarian is 6.12 µM; in the test on PC-3 prostate it was 4.07 µM; in the test with CAKI-1 renal it was 6.71 µM; with M14 melanoma, 4.17 µM. In addition, the TGI in the test with SF-295 CNS was above 100 µM; in the test with NCI-H460 lung it was 23.9 µM; in the test on HS 578T breast, above 100 µM; with SF-268 CNS, above 100 µM; in the test on OVCAR-3 ovarian it was 23.6 µM; with KM12 colon, 23.6 µM. Besides, the TGI is above 100 µM in the test with OVCAR-8 ovarian, above 100 µM in the test on PC-3 prostate, above 100 µM with CAKI-1 renal and 29.8 µM in the test with M14 melanoma.
As to `Clc1cc2c(c(CSc3nc4ccccc4n4cccc34)c1)OCOC2`, the GI50 with SF-295 CNS was 11.7 µM; with NCI-H460 lung, above 100 µM; in the test with HS 578T breast, 5.61 µM; in the test on SF-268 CNS it was 31.3 µM; in the test on OVCAR-3 ovarian, 7.5 µM; with KM12 colon, above 100 µM. In addition, the GI50 in the test on OVCAR-8 ovarian was 20.6 µM; with PC-3 prostate, above 100 µM; in the test with CAKI-1 renal it was above 100 µM; in the test on M14 melanoma it was above 100 µM. Further, the TGI is 39.9 µM in the test with SF-295 CNS; above 100 µM in the test with NCI-H460 lung; 45 µM in the test on HS 578T breast; above 100 µM in the test on SF-268 CNS; above 100 µM in the test on OVCAR-3 ovarian; above 100 µM with KM12 colon. For the same molecule, the TGI with OVCAR-8 ovarian, with PC-3 prostate, in the test with CAKI-1 renal and with M14 melanoma was above 100 µM in each case.
In the case of `CCN(CC)CCNc1nc(N)c(C#N)c(C#N)c1C#N`, the TGI in the test on SF-295 CNS, in the test on NCI-H460 lung, in the test with HS 578T breast, in the test with SF-268 CNS, in the test on OVCAR-3 ovarian and in the test on KM12 colon was above 10 µM in each case. The TGI in the test on OVCAR-8 ovarian, in the test with PC-3 prostate, with CAKI-1 renal and in the test with M14 melanoma was above 10 µM throughout.
As for `O=C(Cc1ccc(F)c(Cl)c1)Nc1cc(C2(C(F)(F)F)CC2)nn1CC1CCCCC1`, the GI50 with SF-295 CNS is 3.62 µM; with NCI-H460 lung, 3.28 µM; with HS 578T breast, 2.13 µM; in the test with SF-268 CNS, 3.95 µM; in the test with OVCAR-3 ovarian, 3.81 µM; in the test on KM12 colon, 3.74 µM. Further, the GI50 with OVCAR-8 ovarian was 4.96 µM; in the test with PC-3 prostate it was 4.68 µM; in the test with CAKI-1 renal it was 2.93 µM; in the test with M14 melanoma, 4.3 µM. The TGI in the test with SF-295 CNS is above 15 µM; in the test on NCI-H460 lung, 8.41 µM; in the test with HS 578T breast, 9.45 µM; in the test with SF-268 CNS it was above 15 µM; in the test with OVCAR-3 ovarian, above 15 µM; in the test with KM12 colon, 12.3 µM. Further, the TGI with OVCAR-8 ovarian is above 15 µM; in the test with PC-3 prostate, above 15 µM; in the test on CAKI-1 renal, 8.79 µM; with M14 melanoma, above 15 µM.
Consider `COc1ccc2nc3ccccc3c(NCc3ccc(F)cc3)c2c1`, for which the GI50 is 1.58 µM in the test with SF-295 CNS; 1.78 µM in the test on NCI-H460 lung; 2.22 µM in the test on HS 578T breast; 2.2 µM in the test with SF-268 CNS; 2.25 µM in the test on OVCAR-3 ovarian; 2.42 µM in the test with KM12 colon. The GI50 was 2 µM in the test on OVCAR-8 ovarian, 1.96 µM with PC-3 prostate, 1.73 µM with CAKI-1 renal and 2.23 µM with M14 melanoma. Moreover, the TGI is 6.48 µM in the test on SF-295 CNS; 6.18 µM with NCI-H460 lung; 12.1 µM with HS 578T breast; 8.71 µM with SF-268 CNS; 7.81 µM in the test on OVCAR-3 ovarian; 8.88 µM with KM12 colon. The TGI in the test on OVCAR-8 ovarian amounted to 13.6 µM; in the test with PC-3 prostate, 8.01 µM; with CAKI-1 renal, 7.05 µM; in the test with M14 melanoma, 8.18 µM.
As to `NNC(=O)CNc1cccc(Br)c1`, the TGI with SF-295 CNS, with NCI-H460 lung, in the test with HS 578T breast, in the test on SF-268 CNS, in the test on OVCAR-3 ovarian and in the test with KM12 colon was above 100 µM each time. Further, the TGI in the test on OVCAR-8 ovarian, in the test with PC-3 prostate, in the test with CAKI-1 renal and in the test with M14 melanoma was above 100 µM each time.
On to `O=C(Nc1cc(C(F)(F)F)cc(C(F)(F)F)c1)c1cc(Cl)ccc1O`, for which the concentration for 50% growth inhibition (GI50) in the test on SF-295 CNS is 0.179 µM and 0.173 µM; in the test with NCI-H460 lung, 0.271 µM and 0.29 µM; in the test with HS 578T breast, 0.222 µM and 0.212 µM; in the test on SF-268 CNS, 0.21 µM; in the test with OVCAR-3 ovarian it was 0.239 µM and 0.23 µM; in the test on KM12 colon it was 0.318 µM and 0.312 µM. The GI50 is 0.278 µM and 0.285 µM in the test with OVCAR-8 ovarian; 0.257 µM and 0.266 µM in the test with PC-3 prostate; 0.212 µM and 0.18 µM in the test with CAKI-1 renal; 0.291 µM and 0.273 µM in the test on M14 melanoma. The concentration for total growth inhibition (TGI) with SF-295 CNS is 0.479 µM and 0.402 µM; with NCI-H460 lung, 1.42 µM and 1.94 µM; in the test on HS 578T breast it was 0.807 µM and 0.821 µM; in the test on SF-268 CNS, 2.1 µM and 2.82 µM; in the test with OVCAR-3 ovarian it was > 3.54 µM and 9.93 µM; in the test with KM12 colon it was 1.14 µM and 1.12 µM. In addition, the TGI in the test with OVCAR-8 ovarian was 3.85 µM and 6.08 µM; in the test on PC-3 prostate, > 3.02 µM and 3.78 µM; in the test on CAKI-1 renal, 0.644 µM and 0.677 µM; in the test with M14 melanoma, 1.25 µM and 1.54 µM.
In the case of `COc1ccc(-c2ccc(=O)oc2C#Cc2cc(OC)c(OC)c(OC)c2)cc1O`, the GI50 is 0.495 µM in the test on SF-295 CNS; 0.287 µM in the test on NCI-H460 lung; 0.696 µM in the test on HS 578T breast; 0.558 µM with SF-268 CNS; 0.113 µM in the test on OVCAR-3 ovarian; 0.759 µM with KM12 colon. In addition, the GI50 with OVCAR-8 ovarian was 0.775 µM; in the test with PC-3 prostate, 0.621 µM; in the test on CAKI-1 renal, 0.621 µM; in the test on M14 melanoma it was 0.521 µM. The TGI in the test with SF-295 CNS is above 100 µM; with NCI-H460 lung, 4.59 µM; in the test with HS 578T breast, above 100 µM; with SF-268 CNS, above 100 µM; in the test with OVCAR-3 ovarian it was 0.612 µM; with KM12 colon it was above 100 µM. Moreover, the TGI in the test with OVCAR-8 ovarian, with PC-3 prostate, with CAKI-1 renal and with M14 melanoma was above 100 µM in each case.

Source of the values: PubChem BioAssay (NCI).
